Two molecules from patent publication US20220304929A1, “LIPIDS FOR DELIVERY OF CHARGED MATERIAL, FORMULATIONS THEREOF AND METHOD FOR MAKING SAME” (INTEGRATED NANOTHERAPEUTICS INC., priority 2019, published 2022) can be followed below.

SMILES strings stand for the structures.

In data set [1] the test system is Firefly Luciferase mRNA expression in liver. Kind of data set: LNP luciferase mRNA expression in vivo in the liver of mice. More on the design: species or system mouse. The note with it: C57Bl/6 mice, 1 mg/kg mRNA i.v., liver at 4 hours post-injection. The method, then: Lipid nanoparticle (LNP) formulations containing cationic lipids of the disclosure and Luciferase mRNA were injected via a tail vein in C57Bl/6 wild-type mice at mRNA dose of 1 mg/kg and the luminescence in the liver was measured post injection. From left-to-right, the cationic lipids incorporated in the LNP-mRNA were INT-A001, INT-A002, INT-A003 and INT-A004. Untreated animals were injected with phosphate buffered saline (PBS).
To assess in vivo activity, LNPs containing Firefly Luciferase mRNA were prepared as described in Example 2. LNPs were diluted with PBS and administered at 1 mg/kg intravenously via tail vein in 6 to 8 weeks old female C57Bl/6 mice (Charles River Laboratories, Wilmington, Mass.). At 4 hours post-injection, animals were euthanized and the livers were collected. Approximately 100 mg of liver was homogenized in 0.5 mL Glo Lysis Buffer (Promega). The homogenate was further diluted 1:4 with the lysis buffer and then 50 μL of diluted homogenate was added to 50 μL Steady-Glo reagent (Promega). The level of luminescence was determined using a Synergy LX plate reader (BioTek).

The nature of data set [2]: Peptide incorporation into LNP (Peptide:Lipid ratio; BCA or CBQCA protein quantification). Type of data set: physicochemical. As for the experimental part:
(§1) Lipid concentrations were determined by measuring total cholesterol using the Cholesterol E enzymatic assay kit from Wako Chemicals USA (Richmond, Va.).
Quantification of protein/peptide was performed with the use of either the BCA Protein Assay (Pierce) or the CBQCA Protein Quantitation Kit (Invitrogen) according to the manufacturer's instructions.

A further data set concerns factor VII (FVII). The experiment in a line: LNP-siRNA activity in the mouse Factor VII model. Format: in vivo. As to conditions: C57Bl/6 mice, i.v. tail vein, 0.03-0.3 mg/kg siRNA, 24 hours post-injection. The method, then: Lipid nanoparticle (LNP) formulations containing cationic lipids of the disclosure and FVII siRNA were injected via a tail vein in C57Bl/6 wild-type mice and the levels of FVII in plasma was measured post injection. The mice were injected with LNP-siRNA at doses of 0.03 (left bar), 0.1 (middle bar) and 0.3 mg/kg (right bar). The cationic lipids incorporated in the LNPs were INT-A001, INT-A002, INT-A003 and INT-A007.
LNPs prepared as described in Example 2 containing siRNA against factor VII (FVII) were diluted with PBS such that injection volumes were maintained at 10 mL/kg body weight and administered (based on siRNA concentration) intravenously via tail vein in 6 to 8 weeks old female C57Bl/6 mice (Charles River Laboratories, Wilmington, Mass.). At 24 hours post-injection, animals were euthanized and blood was collected via intracardiac sampling. Blood samples were allowed to coagulate at 4° C. overnight and the serum was separated followed by centrifugation for 15 min at 12,000 rpm. The serum FVII levels were determined using the Biophen VII chromogenic assay (Aniara, Mason, Ohio) according to the protocol of the manufacturer.

Data set [3] can be described thus: RNA or antisense oligonucleotide encapsulation efficiency (Quant-iT Ribogreen RNA / Oligreen ssDNA assays). Type of data set: physicochemical. As for the experimental part: The RNA or antisense oligonucleotide encapsulation efficiency was determined using the Quant-iT Ribogreen RNA or Oligreen ssDNA Assays, respectively (Life Technologies, Burlington, ON). Briefly, LNP was incubated at 37° C. for 10 min in the presence or absence of 1% Triton X-100 (Sigma-Aldrich, St. Louis, Mo.) followed by the addition of the Ribogreen or Oligreen reagent. The fluorescence intensity (Ex/Em: 480/520 nm) was determined and samples treated with Triton X-100 represent total nucleic acid while untreated samples represent unencapsulated nucleic acid.
To prepare the LNPs, ionizable lipid, DSPC, cholesterol and PEG-DMPE were dissolved in ethanol. The siRNA was dissolved in pH 4.0-6.2 buffer composed of 10-50 mM acetate, succinate or citrate. In select cases, 10-50 mM 4-(2-Hydroxyethyl)piperazine-1-ethanesulfonic acid (HEPES) or 2-(N-Morpholino)ethanesulfonic acid (MES) buffer was used. LNP were prepared by rapidly mixing the lipid components in ethanol (in molar ratio of 50/10/38.5/1.5 of […]) with nucleic acids in aqueous buffer at a volumetric flow rate ratio of 1:3 (ethanol to aqueous, combined flow rate >12 mL/min) at room temperature. Typically, siRNA/lipids ratios were targeted for 0.056 wt/μmol. The product was then dialyzed against 1× phosphate-buffered saline (PBS) at pH 7.4 for 24 hours to remove residual ethanol and to raise the pH. PBS was refreshed after 4 hours.

The nature of data set [4]: Apparent pKa of LNP systems (TNS fluorescence assay). Type of data set: physicochemical. The note with it: LNP containing ionizable lipid and FVII siRNA. The method, then:
Apparent acid dissociation constants (pKa) of LNP systems were determined according to a procedure described in the literature (Jayaraman, M., et al., Maximizing the potency of siRNA lipid nanoparticles for hepatic gene silencing in vivo. Angewandte Chemie, 2012. 51(34): p. 8529-33). Briefly, 2-(p-toluidino)-6-napthalene sulfonic acid (TNS, Sigma-Aldrich, St. Louis, Mo.) and LNP were diluted in buffer (10 mM HEPES, 10 mM MES and 10 mM ammonium acetate) with pH ranges from 2.5 to 11. Final concentration of TNS or total lipid was 6 μM. Samples were then mixed and fluorescence intensity was measured (Ex/Em: 321/445 nm) using a Perkin Elmer LS55. A sigmoidal best fit analysis was applied and the pKa was measured as the pH at half-maximal fluorescence intensity.

For the next data set, the system named is HepG2 cells. Kind of data set: LNP luciferase mRNA expression in cultured HepG2 cells. Format: cell-based. As to conditions: 0.125-1 μg/mL luciferase mRNA, 16-24 hr. The method, then: Cells were treated with LNP formulations containing ionizable lipids of the disclosure and luciferase mRNA at concentrations of 0.125-1 μg/mL. The level of luminescence was measured post treatment. From left-to-right, the ionizable lipids incorporated in the LNPs were INT-A001 (white bar), INT-A002 (dotted bar), INT-A003 (black bar) and INT-A004 (gray bar).
The activity of the ionizable lipids in vitro was evaluated in cultured HepG2 cells. LNPs containing Firefly Luciferase mRNA were prepared as described in Example 2. LNPs were diluted to 0.125-1 μg/mL with DMEM media containing 10% FBS and incubated with HepG2 cells for 16-24 hr. Cells were then lysed with Glo-Lysis Buffer (Promega). Equal amounts of Steady-Glo reagent (Promega) was added to each sample and the level of luminescence was determined using a Synergy LX plate reader (BioTek).

Data set [5] can be described thus: LNP particle size and polydispersity by dynamic light scattering. Type of data set: physicochemical.
The nature of data set [6]: HA incorporation into LNP (HA:Lipid ratio). Format: physicochemical. The note with it: LNP containing ionizable lipid and HA (8-15 kDa). As for the experimental part:
as §1
Hyaluronic acid was used as an example of anionic cargos. LNPs were prepared as described in Example 2 containing HA with a molecular weight of 8-15 kDa.

Data set [7] relates to luciferase expressing human prostate cells (22Rv1). Kind of data set: LNP-siRNA luciferase gene silencing in cultured 22Rv1 cells. Format: cell-based. The note with it: 1 ug/mL siRNA, 16-24 hr. The method, then: Cells were treated with lipid nanoparticle (LNP) formulations containing ionizable lipids of the disclosure and Luciferase siRNA at concentrations of 1.0 (left bar), 0.3 (middle bar) and 0.1 μg/mL (right bar). The level of luminescence was measured post treatment. The ionizable lipids incorporated in the LNPs were 2-(dimethylamino)ethyl (±)-syn-9,10-dilinoleoxystearate (INT-A001), 3-(diethylamino)propyl (±)-syn-9,10-dilinoleoxystearate (INT-A002), 3-(dimethylamino)propyl (±)-syn-9,10-dilinoleoxystearate (INT-A003), 2-(diethylamino)ethyl (±)-syn-9,10-dilinoleoxystearate (INT-A004), 3-(dimethylamino)propyl (12R)-linoleoxyoleate (INT-A005), 3-(diethylamino)propyl (syn-9,10,12R)-trilinoleoxystearate (INT-A006), and 3-(diethylamino)propyl (±)-syn-9,10-bis(2-hexyldecanoyloxy)stearate (INT-A007).
The level of luminescence was measured 16-24 hr post treatment and the relative luminescence is ranked from highest (left) to lowest (right).
The activity of the ionizable lipids in vitro was evaluated in luciferase expressing human prostate cells (22Rv1). LNPs containing siRNA against firefly luciferase were prepared as described in Example 2. […] Equal amounts of Steady-Glo reagent (Promega) was added to each sample and the level of luminescence was determined using a Synergy LX plate reader (BioTek). […]

Where [8] appears, read: LNP containing ionizable lipid and a 4.2 kDa acidic peptide (net charge -3).
The mark [9] stands for this setting: LNP containing ionizable lipid and Luciferase mRNA.
The mark [10] stands for this setting: LNP containing ionizable lipid and antisense oligonucleotide.
[11] abbreviates: LNP containing ionizable lipid and siRNA.
[12] abbreviates: LNP containing ionizable lipid and a 2.0 kDa acidic peptide (net charge -3).
[13] abbreviates: LNP containing ionizable lipid and HA (8-15 kDa).

Turning to `CCCCC/C=C\C/C=C\CCCCCCCC(=O)O[C@@H](CCCCCCCC)[C@@H](CCCCCCCC(=O)OCCN(C)C)OC(=O)CCCCCCC/C=C\C/C=C\CCCCC` (racemic) [INT-A001, 2-(Dimethylamino)ethyl (±)-syn-9,10-dilinoleoxystearate], in data set [1], the “Activity in delivering mRNA and inducing mRNA expression in vivo (liver luminescence)” value was “can effectively deliver mRNA”. The “Peptide:Lipid” value in data set [2] (setting [8]) was 0.161 wt/wt. Further, the “Activity in mediating FVII gene-silencing (residual serum FVII levels)” value with factor VII (FVII) is given as “active in mediating gene-silencing”. For the same molecule, the “Encapsulation Efficiency” value was 96% in data set [3] (setting [9]), 84% in [3] (setting [10]) and 89% in data set [3] (setting [11]). For the same molecule, the “Apparent pKa” value in data set [4] is reported as 6.3. Moreover, the “Activity in delivering mRNA and inducing its expression in vitro (luminescence)” value with HepG2 cells is recorded as “can effectively deliver mRNA”. For the same molecule, the “Particle Diameter” value in [5] (setting [9]) turned out to be 43 nm; in data set [5] (setting [8]) it was 48 nm; in [5] (setting [10]), 44 nm; in [5] (setting [11]), 50 nm. Also, the “Polydispersity index (PDI)” value was determined as 0.064 in data set [5] (setting [9]), 0.021 in [5] (setting [8]), 0.103 in [5] (setting [10]) and 0.059 in data set [5] (setting [11]).
For the molecule `CCCCCCCCC(CCCCCC)C(=O)O[C@@H](CCCCCCCC)[C@@H](CCCCCCCC(=O)OCCCN(CC)CC)OC(=O)C(CCCCCC)CCCCCCCC` (mixture of isomers) [INT-A007, 3-(Diethylamino)propyl (±)-syn-9,10-bis(2-hexyldecanoyloxy)stearate], the “Peptide:Lipid” value amounted to 0.075 wt/wt in data set [2] (setting [12]) and 0.162 wt/wt in [2] (setting [8]). Besides, the “Activity in mediating FVII gene-silencing (residual serum FVII levels)” value in the data set with factor VII (FVII) is “active in mediating gene-silencing”. For the same molecule, the “Encapsulation Efficiency” value in data set [3] (setting [10]) and in [3] (setting [11]) was 84% in each case. Moreover, in data set [6], the “HA:Lipid” value was 0.096 wt/wt. For the same molecule, the “Relative activity in silencing of the firefly luciferase gene (luminescence)” value in data set [7] is “most active”. Also, the “Particle Diameter” value in [5] (setting [13]) is listed as 58 nm; in data set [5] (setting [12]), 79 nm; in [5] (setting [8]), 52 nm; in [5] (setting [10]), 55 nm; in data set [5] (setting [11]), 59 nm. The “Polydispersity index (PDI)” value was determined as 0.065 in [5] (setting [13]); 0.019 in data set [5] (setting [12]); 0.049 in data set [5] (setting [8]); 0.070 in data set [5] (setting [10]); 0.021 in [5] (setting [11]).
